Laboratory results published in PubChem BioAssay AID1963840 (Molecular Pharmacology Branch, DTP, NCI, 2024).

Tested on: 695427-040-R-J1-PDC complex spheroid viability
Assay: Anticancer human tumor 695427-040-R-J1-PDC patient-derived colon adenocarcinoma cell line growth inhibition [POLQ]
Details: for IC50: curve of first compound; for viability, T/C: stronger effect = lower value
In short: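 Three-cell-type spheroids modelling solid tumor plus stroma served as the readout system; POL inhibitors were tested individually and in combination, concentration ranges set by clinical Cmax where known.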

[1] = second compound 0.0316 µM, first compound 0.0316 µM
[2] = second compound 0.0316 µM, first compound 0.1 µM
[3] = second compound 0.0316 µM, first compound 0.316 µM
[4] = second compound 0.0316 µM, first compound 1 µM
[5] = second compound 0.0316 µM, first compound 3.16 µM
[6] = second compound 0.0316 µM, first compound 10 µM
[7] = second compound 0.1 µM, first compound 0.0316 µM
[8] = second compound 0.1 µM, first compound 0.1 µM
[9] = second compound 0.1 µM, first compound 0.316 µM
[10] = second compound 0.1 µM, first compound 1 µM
[11] = second compound 0.1 µM, first compound 3.16 µM
[12] = second compound 0.1 µM, first compound 10 µM
[13] = second compound 0.316 µM, first compound 0.0316 µM
[14] = second compound 0.316 µM, first compound 0.1 µM
[15] = second compound 0.316 µM, first compound 0.316 µM
[16] = second compound 0.316 µM, first compound 1 µM
[17] = second compound 0.316 µM, first compound 3.16 µM
[18] = second compound 0.316 µM, first compound 10 µM
[19] = second compound 1 µM, first compound 0.0316 µM
[20] = second compound 1 µM, first compound 0.1 µM
[21] = second compound 1 µM, first compound 0.316 µM
[22] = second compound 1 µM, first compound 1 µM
[23] = second compound 1 µM, first compound 3.16 µM
[24] = second compound 1 µM, first compound 10 µM
[25] = second compound 3.16 µM, first compound 0.0316 µM
[26] = second compound 3.16 µM, first compound 0.1 µM
[27] = second compound 3.16 µM, first compound 0.316 µM
[28] = second compound 3.16 µM, first compound 1 µM
[29] = second compound 3.16 µM, first compound 3.16 µM
[30] = second compound 3.16 µM, first compound 10 µM
[31] = second compound 10 µM, first compound 0.0316 µM
[32] = second compound 10 µM, first compound 0.1 µM
[33] = second compound 10 µM, first compound 0.316 µM
[34] = second compound 10 µM, first compound 1 µM
[35] = second compound 10 µM, first compound 3.16 µM
[36] = second compound 10 µM, first compound 10 µM
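Note: spheroids exposed to compounds for seven days.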
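Throughout, for viability, T/C: 100% = DMSO vehicle control viability.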

COc1cc(C2c3cc4c(cc3C(OC3OC5COC(C)OC5C(O)C3O)C3COC(=O)C23)OCO4)cc(OC)c1O (centres undefined) + Nc1ccc(C#CCN(C(=O)Cc2ncc(C(F)(F)F)cc2C(F)(F)F)c2ccc(F)cc2)nn1 was tested, and the IC50 (second compound 0.0316 µM) was over 10 µM, the IC50 (second compound 0.1 µM) was over 10 µM and the IC50 (second compound 0.316 µM) was over 10 µM. For the same compound, the IC50 (second compound 1 µM) was over 10 µM, the IC50 (second compound 3.16 µM) was over 10 µM and the IC50 (second compound 10 µM) was over 10 µM. For the same compound, the viability, T/C [1] was 104%, the viability, T/C [2] was 97.9% and the viability, T/C [3] was 98%. The viability, T/C [4] was 97.8%, the viability, T/C [5] was 95.2% and the viability, T/C [6] was 87.4%. The viability, T/C [7] was 99%, the viability, T/C [8] was 97.2% and the viability, T/C [9] was 100%. For the same compound, the viability, T/C [10] was 104%, the viability, T/C [11] was 102% and the viability, T/C [12] was 89.4%. It also gave a viability, T/C [13] of 98.4%, a viability, T/C [14] of 90.5% and a viability, T/C [15] of 98.3%. For the same compound, the viability, T/C [16] was 97.6%, the viability, T/C [17] was 113% and the viability, T/C [18] was 91.3%. The viability, T/C [19] was 101%, the viability, T/C [20] was 97.5% and the viability, T/C [21] was 105%. The viability, T/C [22] was 97.5%, the viability, T/C [23] was 106% and the viability, T/C [24] was 73.5%. The viability, T/C [25] was 96.2%, the viability, T/C [26] was 94.3% and the viability, T/C [27] was 98.5%. It also gave a viability, T/C [28] of 99.2%, a viability, T/C [29] of 101% and a viability, T/C [30] of 81.5%. The viability, T/C [31] was 92.7%, the viability, T/C [32] was 89% and the viability, T/C [33] was 88.8%. The viability, T/C [34] was 87.8%, the viability, T/C [35] was 85.9% and the viability, T/C [36] was 84.9%.

O=c1[nH]cc(F)c(=O)[nH]1 + Nc1ccc(C#CCN(C(=O)Cc2ncc(C(F)(F)F)cc2C(F)(F)F)c2ccc(F)cc2)nn1 showed an IC50 (second compound 0.0316 µM) of over 10 µM, an IC50 (second compound 0.1 µM) of over 10 µM and an IC50 (second compound 0.316 µM) of over 10 µM. For the same compound, the IC50 (second compound 1 µM) was over 10 µM, the IC50 (second compound 3.16 µM) was over 10 µM and the IC50 (second compound 10 µM) was over 10 µM. The viability, T/C [1] was 111%, the viability, T/C [2] was 111% and the viability, T/C [3] was 98.8%. The viability, T/C [4] was 102%, the viability, T/C [5] was 112% and the viability, T/C [6] was 106%. For the same compound, the viability, T/C [7] was 111%, the viability, T/C [8] was 106% and the viability, T/C [9] was 95.1%. The viability, T/C [10] was 106%, the viability, T/C [11] was 111% and the viability, T/C [12] was 100%. The viability, T/C [13] was 110%, the viability, T/C [14] was 105% and the viability, T/C [15] was 99.5%. For the same compound, the viability, T/C [16] was 112%, the viability, T/C [17] was 106% and the viability, T/C [18] was 90.9%. For the same compound, the viability, T/C [19] was 104%, the viability, T/C [20] was 98.8% and the viability, T/C [21] was 90.5%. For the same compound, the viability, T/C [22] was 107%, the viability, T/C [23] was 107% and the viability, T/C [24] was 99.1%. The viability, T/C [25] was 98.7%, the viability, T/C [26] was 107% and the viability, T/C [27] was 97.6%. It also gave a viability, T/C [28] of 93.2%, a viability, T/C [29] of 103% and a viability, T/C [30] of 108%. The viability, T/C [31] was 110%, the viability, T/C [32] was 103% and the viability, T/C [33] was 98%. The viability, T/C [34] was 97.5%, the viability, T/C [35] was 96.7% and the viability, T/C [36] was 101%.
